The target in series [1] is T1, recombinant human plasminogen activator inhibitor-1 (PAI-1) (Homo sapiens, UniProt P05121).
T1 construct: purchased Molecular Innovations, Royal Oak, Mich
The series is described as follows: Primary Screen for the PAI-1 Inhibition. It counts as biochemical. The note with it: for inhibition at 25 µM: 25 μM test compound, read-out: % Inhib. 25 μM; for inhibition at 100 µM: 100 μM test compound, read-out: % Inhib. 100 μM. The procedure:
(§1) Test compounds are dissolved in DMSO at a final concentration of 10 mM, then diluted 100× in physiologic buffer. The inhibitory assay is initiated by the addition of the test compound (1-100 μM final concentration, maximum DMSO concentration of 0.2%) in a pH 6.6 buffer containing 140 nM recombinant human plasminogen activator inhibitor-1 (PAI-1; Molecular Innovations, Royal Oak, Mich.). Following a 1 hour incubation at room temperature, 70 nM of recombinant human tissue plasminogen activator (tPA) is added, and the combination of the test compound, PAI-1 and tPA is incubated for an additional 30 minutes. Following the second incubation, Spectrozyme-tPA (American Diagnostica, Greenwich, Conn.), a chromogenic substrate for tPA, is added and absorbance read at 405 nm at 0 and 60 minutes. Relative PAI-1 inhibition is equal to the residual tPA activity in the presence of the test compound and PAI-1. Control treatments include the complete inhibition of tPA by PAI-1 at the molar ratio employed (2:1), and the absence of any effect of the test compound on tPA alone.

Series [2] deals with T1, recombinant human plasminogen activator inhibitor-1 (PAI-1). The series can be described thus: Modification of the Primary Screen for the PAI-1 Inhibition (IC50). It counts as biochemical. The procedure: as §1
For the next series, the target named is human PAI-1 (Homo sapiens, UniProt P05121). The series is described as follows: Assay for Determining IC50 of Inhibition of PAI-1 (Antibody Assay). The note with it: active PAI-1 bound to tPA-coated plate. It counts as biochemical. Here is the method: This assay is based upon the non-SDS dissociable interaction between tPA and active PAI-1. Assay plates are initially coated with human tPA (10 μg/ml). The test compounds are dissolved in DMSO at 10 mM, then diluted with physiologic buffer (pH 7.5) to a final concentration of 1-50 μM. The test compounds are incubated with human PAI-1 (50 ng/ml) for 15 minutes at room temperature. The tPA-coated plate is washed with a solution of 0.05% Tween 20 and 0.1% BSA, then the plate is blocked with a solution of 3% BSA. An aliquot of the test compound/PAI-1 solution is then added to the tPA-coated plate, incubated at room temperature for 1 hour, and washed. Active PAI-1 bound to the plate is assessed by adding an aliquot of a 1:1000 dilution of the 33B8 monoclonal antibody against human PAI-1, and incubating the plate at room temperature for 1 hour (Molecular Innovations, Royal Oak, Mich. The plate is again washed, and a solution of goat anti-mouse IgG-alkaline phosphatase conjugate is added at a 1:50,000 dilution in goat serum. The plate is incubated 30 minutes at room temperature, washed, and a solution of alkaline phosphatase substrate is added. The plate is incubated 45 minutes at room temperature, and color development is determined at OD405nm. The quantitation of active PAI-1 bound to tPA at varying concentrations of the test compound is used to determine the IC50. Results are analyzed using a logarithmic best-fit equation. The assay sensitivity is 5 ng/ml of human PAI-1 as determined from a standard curve ranging from 0-100 ng/ml.
Sequence of human PAI-1 (P05121 24-402): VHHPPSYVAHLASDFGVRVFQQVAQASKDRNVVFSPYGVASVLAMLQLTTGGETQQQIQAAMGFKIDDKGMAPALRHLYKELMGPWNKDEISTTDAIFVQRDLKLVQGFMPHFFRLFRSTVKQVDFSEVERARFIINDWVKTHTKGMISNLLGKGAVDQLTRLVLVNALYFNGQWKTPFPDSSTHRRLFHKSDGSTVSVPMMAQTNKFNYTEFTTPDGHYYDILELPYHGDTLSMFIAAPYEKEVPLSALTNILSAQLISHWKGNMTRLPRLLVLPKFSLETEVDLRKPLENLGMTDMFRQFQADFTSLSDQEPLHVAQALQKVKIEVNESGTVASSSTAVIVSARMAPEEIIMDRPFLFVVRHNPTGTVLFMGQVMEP

Where a name gives a salt, the structure may show the parent alone.

T1 sequence (P05121 24-402): as above

Consider `CCCCc1oc2ccccc2c1C(=O)Nc1ccc2c(Br)c(OCC(=O)O)ccc2c1` [Example 6, {1-Bromo-6-[(2-butyl-benzofuran-3-carbonyl)-amino]-naphthalen-2-yloxy}-acetic acid sodium salt], for which, in series [1], the inhibition at 25 µM is 43% and the inhibition at 100 µM stood at 67%. Further, the IC50 in series [2] was found to be 18.3 µM.

In turn, `O=C(O)COc1ccc2cc(CNC(=O)c3cnn(-c4ccc(Cl)cc4)c3C(F)(F)F)ccc2c1` [Example 14, [6-({[1-(4-Chloro-phenyl)-5-trifluoromethyl-1H-pyrazole-4-carbonyl]-amino}-methyl)-naphthalen-2-yloxy]-acetic acid] showed an IC50 against human PAI-1 of 51 µM. Moreover, in series [1], the inhibition at 25 µM is 1% and the inhibition at 100 µM was found to be 70%.

`CCCCc1oc2ccccc2c1C(=O)NCc1ccc2c(Br)c(OC(Cc3ccccc3)C(=O)O)ccc2c1` (stereo not shown) [Example 18, 2-(1-Bromo-6-{[(2-butyl-benzofuran-3-carbonyl)-amino]-methyl}-naphthalen-2-yloxy)-3-phenyl-propionic acid]: the IC50 against human PAI-1 was 15.7 µM. Also, in series [1], the inhibition at 25 µM came to 53% and the inhibition at 100 µM amounted to 92%.

`Cc1oc2ccccc2c1C(=O)NCc1ccc2c(Br)c(OCc3nnn[nH]3)ccc2c1` [Example 20, 2-Methyl-benzofuran-3-carboxylic acid [5-bromo-6-(1H-tetrazol-5-ylmethoxy)-naphthalen-2-ylmethyl]-amide] showed a melting point of 242 to 244 °C. Further, it took 15.8 µM to reach half-maximal inhibition at human PAI-1 (IC50). Also, in series [1], the inhibition at 25 µM came to 26% and the inhibition at 100 µM stood at 58%.

`CCc1oc2ccccc2c1C(=O)NCc1ccc2c(Br)c(OCc3nnn[nH]3)ccc2c1` [Example 21, 2-Ethyl-benzofuran-3-carboxylic acid [5-bromo-6-(1H-tetrazol-5-yl methoxy)-naphthalen-2-ylmethyl]-amide] showed a melting point of 235 to 238 °C. On human PAI-1, this molecule yielded an IC50 of 5.08 µM. Moreover, in series [1], the inhibition at 25 µM is 36% and the inhibition at 100 µM is 54%.

The molecule `CCCCc1oc2ccccc2c1C(=O)NCc1ccc2c(-c3ccc(OC)cc3)c(OC(Cc3ccccc3)C(=O)[O-])ccc2c1.[Na+]` (stereo not shown) [Example 30, Sodium; 2-[6-{[(2-Butyl-benzofuran-3-carbonyl)-amino]-methyl}-1-(4-methoxy-phenyl)-naphthalen-2-yloxy]-3-phenyl-propionate] gave a melting point of 138 to 142 °C. Also, on human PAI-1, the IC50 came to 44.9 µM. Moreover, in series [1], the inhibition at 25 µM was 38% and the inhibition at 100 µM is 91%.

Regarding `CCc1oc2ccccc2c1C(=O)N(C)Cc1ccc2c(Br)c(OCc3nnn[nH]3)ccc2c1` [Example 32, 2-Ethyl-benzofuran-3-carboxylic acid [5-bromo-6-(1H-tetrazol-5-ylmethoxy)-naphthalen-2-ylmethyl]-methyl-amide], on human PAI-1, the IC50 was 25.9 µM. In series [1], the inhibition at 25 µM came to 1% and the inhibition at 100 µM was found to be 70%.

The molecule `CCCc1c(C(=O)N(C)Cc2ccc3c(Br)c(OCc4nnn[nH]4)ccc3c2)cnn1-c1ccccc1` [Example 33, 1-Phenyl-5-propyl-1H-pyrazole-4-carboxylic acid [5-bromo-6-(1H-tetrazol-5-ylmethoxy)-naphthalen-2-ylmethyl]-methyl-amide] gave a melting point of 75 to 85 °C. For the same molecule, the IC50 against human PAI-1 came out at 31.1 µM. In series [1], the inhibition at 25 µM stood at 59% and the inhibition at 100 µM is 94%.

`CN(Cc1ccc2c(Br)c(OCc3nnn[nH]3)ccc2c1)C(=O)c1cn(Cc2ccccc2)c2ccccc12` [Example 34, 1-Benzyl-1H-indole-3-carboxylic acid [5-bromo-6-(1H-tetrazol-5-ylmethoxy)-naphthalen-2-ylmethyl]-methyl-amide]: the melting point was in the range of 197 to 198 °C. Besides, the 50% inhibitory concentration (IC50) against human PAI-1 was found to be 19.3 µM. In series [1], the inhibition at 25 µM came out at 34% and the inhibition at 100 µM is 81%.

Turning to `CN(Cc1ccc2c(Br)c(OCc3nnn[nH]3)ccc2c1)C(=O)c1cn(C)c2ccccc12` [Example 37, 1-Methyl-1H-indole-3-carboxylic acid [5-bromo-6-(1H-tetrazol-5-ylmethoxy)-naphthalen-2-ylmethyl]-methyl-amide], the melting point was in the range of 227 to 228 °C. This molecule registered an IC50 at human PAI-1 of 20.6 µM. In series [1], the inhibition at 25 µM was found to be 52% and the inhibition at 100 µM was determined as 96%.

In turn, `Cc1oc2ccccc2c1C(=O)N(Cc1ccccc1)Cc1ccc2c(Br)c(OCc3nnn[nH]3)ccc2c1` [Example 49, 2-Methyl-benzofuran-3-carboxylic acid benzyl-[5-bromo-6-(1H-tetrazol-5-ylmethoxy)-naphthalen-2-ylmethyl]-amide] registered an IC50 against human PAI-1 of 6.92 µM. In addition, in series [1], the inhibition at 25 µM is 54% and the inhibition at 100 µM came to 72%.

Take `CCc1oc2ccccc2c1C(=O)N(Cc1ccccc1)Cc1ccc2c(Br)c(OCc3nnn[nH]3)ccc2c1` [Example 50, 2-Ethyl-benzofuran-3-carboxylic acid benzyl-[5-bromo-6-(1H-tetrazol-5ylmethoxy)-naphthalen-2-ylmethyl)-amide]: it took 35.7 µM to reach half-maximal inhibition against human PAI-1 (IC50). For the same molecule, in series [1], the inhibition at 25 µM came to 56% and the inhibition at 100 µM was found to be 61%.

The molecule `CCCCN(Cc1ccc2c(Br)c(OCc3nnn[nH]3)ccc2c1)C(=O)c1c(C)oc2ccccc12` [Example 52, 2-Methyl-benzofuran-3-carboxylic acid [5-bromo-6-(1H-tetrazol-5-ylmethoxy)-naphthalen-2-ylmethyl]-butyl-amide] gave a melting point of 204 to 206 °C. The same molecule registered an IC50 against human PAI-1 of 20.8 µM. In series [1], the inhibition at 25 µM worked out at 44% and the inhibition at 100 µM was found to be 81%.

Consider `CN(Cc1ccc2c(Br)c(OC(Cc3ccccc3)C(=O)O)ccc2c1)C(=O)c1ccc(Oc2cc(Cl)cc(Cl)c2)o1` (stereo not shown) [Example 64, 2-[1-Bromo-6-({[5-(3,5-dichloro-phenoxy)-furan-2-carbonyl]-methyl-amino}-methyl)-naphthalen-2-yloxy]-3-phenyl-propionic acid], for which it took 13.6 µM to reach half-maximal inhibition against human PAI-1 (IC50). For the same molecule, in series [1], the inhibition at 25 µM turned out to be 40% and the inhibition at 100 µM is 60%.

In turn, `CN(Cc1ccc2c(Br)c(OC(Cc3ccccc3)C(=O)O)ccc2c1)C(=O)c1cc(C(C)(C)C)cc(C(C)(C)C)c1` (stereo not shown) [Example 65, 2-(1-Bromo-6-{[(3,5-di-tert-butyl-benzoyl)-methyl-amino]-methyl}-naphthalen-2-yloxy)-3-phenyl-propionic acid] yielded an IC50 against human PAI-1 of 14.6 µM. Besides, in series [1], the inhibition at 25 µM came out at 46% and the inhibition at 100 µM stood at 88%.

Turning to `O=C(O)C(Cc1ccccc1)Oc1ccc2cc(CN(Cc3ccccc3)C(=O)c3ccc(Oc4cc(Cl)cc(Cl)c4)o3)ccc2c1Br` (stereo not shown) [Example 67, 2-[6-({Benzyl-[5-(3,5-dichloro-phenoxy)-furan-2-carbonyl]-amino}-methyl)-1-bromo-naphthalen-2-yloxy]-3-phenyl-propionic acid], 13.5 µM corresponded to half-maximal inhibition against human PAI-1 (IC50). Also, in series [1], the inhibition at 25 µM is 59% and the inhibition at 100 µM came to 66%.

Consider `CCCCc1oc2ccccc2c1C(=O)N(Cc1ccccc1)Cc1ccc2c(Br)c(OC(Cc3ccccc3)C(=O)O)ccc2c1` (stereo not shown) [Example 68, 2-(6-{[Benzyl-(2-butyl-benzofuran-3-carbonyl)-amino]-methyl}-1-bromo-naphthalen-2-yloxy)-3-phenyl-propionic acid], for which, on human PAI-1, 20 µM corresponded to half-maximal inhibition (IC50). Further, in series [1], the inhibition at 25 µM came out at 54% and the inhibition at 100 µM was determined as 84%.

As for `CC(C)(C)c1cc(C(=O)N(Cc2ccccc2)Cc2ccc3c(Br)c(OC(Cc4ccccc4)C(=O)O)ccc3c2)cc(C(C)(C)C)c1` (stereo not shown) [Example 69, 2-(6-{[Benzyl-(3,5-di-tert-butyl-benzoyl)-amino]-methyl}-1-bromo-naphthalen-2-yloxy)-3-phenyl-propionic acid], on human PAI-1, 16.8 µM corresponded to half-maximal inhibition (IC50). For the same molecule, in series [1], the inhibition at 25 µM came to 55% and the inhibition at 100 µM was 92%.

For the origin of these results see patent publication US6589970B2, “6-(aryl-amido or aryl-amidomethyl)-naphthalen-2-yloxy-acidic derivatives as inhibitors of plasminogen activator inhibitor type-1 (PAI-1)” (Wyeth, priority 2001, dated 2003).
